# Assay results: ChEMBL document CHEMBL5465560, “Selectivity Literature for EUbOPEN Chemogenomic Library” (2024)
# Assays:
# [1] = molecular target: T1, Phosphatidylinositol 5-phosphate 4-kinase type-2 beta (Homo sapiens) (UniProt P78356); experiment: Selectivity interaction (KinomeScan (DiscoverX)) EUB0000092b PIP4K2B; conditions: at 10 µM
# T1 sequence (whole entry): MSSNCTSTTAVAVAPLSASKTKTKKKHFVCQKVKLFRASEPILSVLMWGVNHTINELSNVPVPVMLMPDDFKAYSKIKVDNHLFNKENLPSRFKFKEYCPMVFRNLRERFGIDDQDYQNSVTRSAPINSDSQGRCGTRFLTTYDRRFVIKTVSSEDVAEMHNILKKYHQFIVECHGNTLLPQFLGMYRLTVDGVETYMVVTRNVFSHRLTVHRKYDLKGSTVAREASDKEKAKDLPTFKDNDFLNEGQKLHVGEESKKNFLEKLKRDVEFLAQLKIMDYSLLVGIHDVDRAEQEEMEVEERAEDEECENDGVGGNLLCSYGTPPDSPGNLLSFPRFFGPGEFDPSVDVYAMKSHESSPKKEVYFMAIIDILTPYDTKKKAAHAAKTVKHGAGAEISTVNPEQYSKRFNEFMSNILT
# [2] = molecular target: Serine/threonine-protein kinase SBK1 (Homo sapiens) (UniProt Q52WX2); experiment: Selectivity interaction (KinomeScan (DiscoverX)) EUB0000655a SBK1; conditions: at 10 µM
# [3] = molecular target: Phosphatidylinositol 4-phosphate 5-kinase type-1 alpha (Homo sapiens) (UniProt Q99755); experiment: Selectivity interaction (ProQinase) EUB0000171b PIP5K1A
# [4] = molecular target: AP2-associated protein kinase 1 (Homo sapiens, UniProt Q2M2I8); experiment: Selectivity interaction (Kinase panel (DSF assay)) EUB0001559a AAK1
# [5] = molecular target: T2, Myosin-IIIb (Homo sapiens) (UniProt Q8WXR4); experiment: Selectivity interaction (KinomeScan (DiscoverX)) EUB0000045b MYO3B
# T2 sequence (whole entry): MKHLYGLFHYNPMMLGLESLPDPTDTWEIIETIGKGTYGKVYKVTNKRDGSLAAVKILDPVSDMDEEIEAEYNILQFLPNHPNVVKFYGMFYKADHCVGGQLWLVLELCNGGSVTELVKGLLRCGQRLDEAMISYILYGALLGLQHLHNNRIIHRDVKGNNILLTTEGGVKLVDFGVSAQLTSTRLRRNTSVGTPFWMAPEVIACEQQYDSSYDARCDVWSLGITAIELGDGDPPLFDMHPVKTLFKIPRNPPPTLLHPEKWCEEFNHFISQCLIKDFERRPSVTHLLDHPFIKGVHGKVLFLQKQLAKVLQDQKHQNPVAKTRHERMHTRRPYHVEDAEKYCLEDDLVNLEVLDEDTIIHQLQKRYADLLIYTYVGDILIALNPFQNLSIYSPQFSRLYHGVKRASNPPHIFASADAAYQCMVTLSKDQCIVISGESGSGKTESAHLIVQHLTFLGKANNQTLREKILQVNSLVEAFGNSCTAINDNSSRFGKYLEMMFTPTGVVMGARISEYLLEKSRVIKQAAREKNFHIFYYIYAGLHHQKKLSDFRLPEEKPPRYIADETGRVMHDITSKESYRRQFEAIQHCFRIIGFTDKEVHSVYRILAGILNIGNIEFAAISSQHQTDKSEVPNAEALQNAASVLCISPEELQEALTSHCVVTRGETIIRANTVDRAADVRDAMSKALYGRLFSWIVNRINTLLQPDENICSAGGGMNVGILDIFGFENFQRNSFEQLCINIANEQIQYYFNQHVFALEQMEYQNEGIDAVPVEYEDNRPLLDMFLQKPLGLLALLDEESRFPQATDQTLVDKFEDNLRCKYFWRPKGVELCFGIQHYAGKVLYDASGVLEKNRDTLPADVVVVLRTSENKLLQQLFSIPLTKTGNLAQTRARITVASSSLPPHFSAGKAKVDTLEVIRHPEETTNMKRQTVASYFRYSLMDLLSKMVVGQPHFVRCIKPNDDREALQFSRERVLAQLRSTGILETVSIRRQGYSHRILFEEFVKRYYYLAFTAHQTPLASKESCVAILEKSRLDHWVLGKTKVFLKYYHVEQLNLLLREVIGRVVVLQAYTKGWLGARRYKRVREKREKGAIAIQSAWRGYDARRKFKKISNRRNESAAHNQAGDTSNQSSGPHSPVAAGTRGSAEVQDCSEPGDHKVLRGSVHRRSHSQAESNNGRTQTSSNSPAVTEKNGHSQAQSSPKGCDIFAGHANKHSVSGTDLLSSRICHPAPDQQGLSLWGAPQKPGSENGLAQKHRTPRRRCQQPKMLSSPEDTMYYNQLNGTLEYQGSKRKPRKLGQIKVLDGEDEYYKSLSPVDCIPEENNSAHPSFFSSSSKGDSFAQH
# [6] = molecular target: T3, Histone-arginine methyltransferase CARM1 (Homo sapiens) (UniProt Q86X55); conditions: KMS-12-BM, at 3 µM
# T3 sequence (whole entry): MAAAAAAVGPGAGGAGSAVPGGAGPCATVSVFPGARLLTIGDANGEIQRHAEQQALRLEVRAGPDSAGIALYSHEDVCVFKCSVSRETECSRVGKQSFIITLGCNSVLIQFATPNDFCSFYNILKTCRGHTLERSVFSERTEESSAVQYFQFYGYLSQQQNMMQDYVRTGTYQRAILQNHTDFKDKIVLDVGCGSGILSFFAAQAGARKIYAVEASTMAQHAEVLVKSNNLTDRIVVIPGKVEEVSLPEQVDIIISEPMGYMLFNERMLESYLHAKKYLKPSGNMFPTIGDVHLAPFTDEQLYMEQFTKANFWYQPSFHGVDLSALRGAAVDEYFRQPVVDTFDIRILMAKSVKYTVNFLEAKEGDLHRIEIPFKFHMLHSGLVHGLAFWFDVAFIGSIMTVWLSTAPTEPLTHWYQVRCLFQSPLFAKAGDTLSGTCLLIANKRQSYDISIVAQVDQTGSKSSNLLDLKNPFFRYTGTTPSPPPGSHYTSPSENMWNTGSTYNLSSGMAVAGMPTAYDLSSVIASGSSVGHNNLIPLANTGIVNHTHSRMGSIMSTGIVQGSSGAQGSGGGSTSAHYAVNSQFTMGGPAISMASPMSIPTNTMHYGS
# Phosphatidylinositol 4-phosphate 5-kinase type-1 alpha (Homo sapiens), sequence (Q99755 whole entry): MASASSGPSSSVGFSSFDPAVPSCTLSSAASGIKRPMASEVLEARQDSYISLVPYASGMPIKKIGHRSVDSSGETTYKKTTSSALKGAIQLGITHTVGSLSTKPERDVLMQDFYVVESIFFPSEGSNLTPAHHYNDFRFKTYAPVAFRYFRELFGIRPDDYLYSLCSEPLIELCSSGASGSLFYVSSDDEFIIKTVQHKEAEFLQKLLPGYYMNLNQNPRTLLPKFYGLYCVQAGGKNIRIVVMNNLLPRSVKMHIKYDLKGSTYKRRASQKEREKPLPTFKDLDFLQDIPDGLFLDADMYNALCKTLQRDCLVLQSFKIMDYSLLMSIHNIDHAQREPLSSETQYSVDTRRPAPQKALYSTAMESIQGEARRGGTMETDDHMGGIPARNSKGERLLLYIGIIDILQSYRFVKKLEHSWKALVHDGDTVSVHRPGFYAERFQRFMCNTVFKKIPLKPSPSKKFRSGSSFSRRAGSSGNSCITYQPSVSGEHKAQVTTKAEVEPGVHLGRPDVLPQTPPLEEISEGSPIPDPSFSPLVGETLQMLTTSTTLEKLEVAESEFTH
# AP2-associated protein kinase 1, sequence (Q2M2I8 whole entry, looked up): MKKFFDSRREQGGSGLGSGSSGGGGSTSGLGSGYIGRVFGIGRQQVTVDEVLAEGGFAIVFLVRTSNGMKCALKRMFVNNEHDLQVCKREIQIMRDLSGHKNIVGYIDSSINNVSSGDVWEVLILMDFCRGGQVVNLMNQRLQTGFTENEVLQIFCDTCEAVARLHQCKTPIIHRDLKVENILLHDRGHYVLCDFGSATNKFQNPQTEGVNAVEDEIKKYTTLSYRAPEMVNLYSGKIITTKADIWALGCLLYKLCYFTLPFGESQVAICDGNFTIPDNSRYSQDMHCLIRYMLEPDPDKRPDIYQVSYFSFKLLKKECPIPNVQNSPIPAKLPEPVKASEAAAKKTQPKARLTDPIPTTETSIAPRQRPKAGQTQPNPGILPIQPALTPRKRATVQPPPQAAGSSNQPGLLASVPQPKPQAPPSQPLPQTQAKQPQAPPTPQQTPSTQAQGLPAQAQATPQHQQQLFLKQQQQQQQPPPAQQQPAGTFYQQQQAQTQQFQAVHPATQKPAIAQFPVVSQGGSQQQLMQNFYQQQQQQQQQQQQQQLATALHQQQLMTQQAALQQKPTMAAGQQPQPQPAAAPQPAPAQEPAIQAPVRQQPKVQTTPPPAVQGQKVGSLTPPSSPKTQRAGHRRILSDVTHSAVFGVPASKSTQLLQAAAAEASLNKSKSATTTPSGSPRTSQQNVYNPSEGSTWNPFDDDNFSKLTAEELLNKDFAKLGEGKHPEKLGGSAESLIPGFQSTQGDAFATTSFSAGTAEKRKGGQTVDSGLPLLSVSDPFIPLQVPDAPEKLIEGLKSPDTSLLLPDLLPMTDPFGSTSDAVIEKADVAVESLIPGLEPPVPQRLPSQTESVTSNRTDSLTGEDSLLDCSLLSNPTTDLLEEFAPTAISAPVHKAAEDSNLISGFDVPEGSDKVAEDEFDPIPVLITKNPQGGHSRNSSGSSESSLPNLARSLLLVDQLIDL
# Serine/threonine-protein kinase SBK1 (Homo sapiens), sequence (Q52WX2 whole entry): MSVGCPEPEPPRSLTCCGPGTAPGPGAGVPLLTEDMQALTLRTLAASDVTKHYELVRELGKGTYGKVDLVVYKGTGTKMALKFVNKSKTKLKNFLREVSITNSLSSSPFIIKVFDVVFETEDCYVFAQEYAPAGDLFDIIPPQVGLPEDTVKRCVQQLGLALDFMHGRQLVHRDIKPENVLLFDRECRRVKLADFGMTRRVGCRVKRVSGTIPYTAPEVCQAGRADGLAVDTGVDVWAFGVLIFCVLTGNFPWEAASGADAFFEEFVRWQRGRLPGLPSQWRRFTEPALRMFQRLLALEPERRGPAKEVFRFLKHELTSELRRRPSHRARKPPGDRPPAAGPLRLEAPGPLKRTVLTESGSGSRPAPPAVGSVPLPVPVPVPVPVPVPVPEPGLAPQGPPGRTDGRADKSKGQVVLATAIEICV
compound,measurement,setting,value
CCC(=O)N1CCN(c2ccc(-n3c(=O)ccc4cnc5ccc(-c6cnc7ccccc7c6)cc5c43)cc2C(F)(F)F)CC1,% of control,[1],100%
CN(C)CCOc1ccc(-c2nc(-c3ccncc3)c(-c3ccc4c(c3)CC/C4=N\O)[nH]2)cc1,% of control,[2],83%
C=CC(=O)Nc1cccc(C(=O)Nc2ccc(Nc3cc(-c4[nH]c(SC)nc4C)ccn3)cc2)c1,% of control,[3]; at 1 µM,102%
same,% of control,[3]; at 5 µM,44%
CN(C(=O)c1cnn2cccnc12)c1cc2c(cc1N1CCOCC1)C(=O)N(C[C@@H](F)C(C)(C)O)C2,dTM,[4],0.3 K
C=CC(=O)Nc1cc(-n2c(=O)ccc3cnc4ccc(-c5ccc(NS(C)(=O)=O)cc5)cc4c32)ccc1C,% of control,[5]; at 1 µM,92%
same,% of control,[5]; at 10 µM,100%
CNCCN1CCC(c2cc(CN(C)C(=O)c3cccc(Oc4ccccc4)c3)ccn2)CC1,% of growth rate,[6],-8.2%
